We go through one compound from US9017645B2, “Homoglutamic acid derivatives” (Piramal Imaging SA, priority 2009, dated 2015).

In this assay the test system is H460 cells. Description: Cell-competition experiment: uptake of radiolabeled glutamic acid derivative into tumor cells. Particulars: competitor 1 mM and 0.1 mM, 30 min incubation in PBS. Format: cell-based, human. On the procedure: FIG. 7: Biological activity of (2S)-2-Amino-5-(4-cyano-3-fluorobenzyl)hexanedioic acid in a cell-competition-experiment (H460 cells, 30 min incubation with radiolabeled glutamic acid derivative in PBS-Puffer, concentration of competitor 1 mM and 0.1 mM).
The ability of (2S)-2-Amino-5-(4-cyano-3-fluorobenzyl)hexanedioic acid to compete with uptake of glutamic acid derivatives into tumor cells was examined. Therefore, tumor cells were co-incubated with a radiolabeled glutamic acid derivative and (2S)-2-Amino-5-(4-cyano-3-fluorobenzyl)hexanedioic acid. This compounds was used in large excess to the tracer. Two concentrations were examined (1 mM an 0.1 mM).

On to `N#Cc1ccc(CC(CC[C@H](N)C(=O)O)C(=O)O)cc1F` (stereo partly drawn) [(2S)-2-Amino-5-(4-cyano-3-fluorobenzyl)hexanedioic acid], for which the “uptake of radiolabeled glutamic acid derivative into tumor cells (competition)” value is reported as “strongly reduces the uptake”.
